Results: ChEMBL document CHEMBL1201862, “PubChem BioAssay data set” (2004)
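Interpolation was linear, between the two tested concentrations surrounding the appropriate level; five concentrations were tested over 48 hours in 96-well plates. GI50 marks 50% less growth.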 Calls of active or inactive are those of the source. Rule as the data show it: active = GI50 up to about 1.1 µM and inactive = higher.

Assays:
Test in all cases: DTP human tumour cell line panel, 48 h
HL-60 = tested on: HL-60
ACHN = tested on: ACHN
SF-539 = tested on: SF-539
SK-MEL-2 = tested on: SK-MEL-2
SNB-75 = tested on: SNB-75
SK-MEL-5 = tested on: SK-MEL-5
UO-31 = tested on: UO-31
K562 = tested on: K562
HCT-116 = tested on: HCT-116
SK-MEL-28 = tested on: SK-MEL-28
OVCAR-4 = tested on: OVCAR-4
RXF 393 = tested on: RXF 393
UACC-257 = tested on: UACC-257
SF-295 = tested on: SF-295
MOLT-4 = tested on: MOLT-4
CCRF-CEM = tested on: CCRF-CEM
SNB-19 = tested on: SNB-19
RPMI-8226 = tested on: RPMI-8226
HOP-92 = tested on: HOP-92

SMILES	GI50 (HL-60)	GI50 (ACHN)	GI50 (SF-539)	GI50 (SK-MEL-2)	GI50 (SNB-75)	GI50 (SK-MEL-5)	GI50 (UO-31)	GI50 (K562)	GI50 (HCT-116)	GI50 (SK-MEL-28)	GI50 (OVCAR-4)	GI50 (RXF 393)	GI50 (UACC-257)	GI50 (SF-295)	GI50 (MOLT-4)	GI50 (CCRF-CEM)	GI50 (SNB-19)	GI50 (RPMI-8226)	GI50 (HOP-92)
O=C1c2cccc3cccc(c23)C(=O)N1O	> 100 µM (inactive)	71.8 µM (inactive)	50.9 µM (inactive)	86.5 µM (inactive)	27.7 µM (inactive)	> 100 µM (inactive)	70.1 µM (inactive)	36.7 µM (inactive)	27.4 µM (inactive)	> 100 µM (inactive)	57.8 µM (inactive)	24 µM (inactive)	> 100 µM (inactive)	34.2 µM (inactive)	69.7 µM (inactive)	18.5 µM (inactive)	95.1 µM (inactive)	45.6 µM (inactive)	25.7 µM (inactive)
O=c1sc(Nc2ccc3ccccc3c2Cl)nc2ccccc12	26.5 µM (inactive)	> 100 µM (inactive)	73.8 µM (inactive)	> 100 µM (inactive)	49.3 µM (inactive)	> 100 µM (inactive)	> 100 µM (inactive)	> 100 µM (inactive)	> 100 µM (inactive)	> 100 µM (inactive)	> 100 µM (inactive)	72.1 µM (inactive)	> 100 µM (inactive)	> 100 µM (inactive)		> 100 µM (inactive)	> 100 µM (inactive)	> 100 µM (inactive)	35.9 µM (inactive)
O=C(O)CCCCCCC[C@H]1S[C@H]1CCCCCCO	> 100 µM (inactive)		> 100 µM (inactive)	> 100 µM (inactive)		> 100 µM (inactive)	> 100 µM (inactive)	> 100 µM (inactive)	> 100 µM (inactive)	> 100 µM (inactive)	> 100 µM (inactive)	> 100 µM (inactive)		> 100 µM (inactive)	> 100 µM (inactive)		> 100 µM (inactive)	> 100 µM (inactive)	< 0.01 µM (active)
CC(=O)C1C(=O)C(=O)N(c2ccc(Cl)cc2C)C1=O (stereo not drawn)	> 100 µM (inactive)	> 100 µM (inactive)	> 100 µM (inactive)	> 100 µM (inactive)		> 100 µM (inactive)	> 100 µM (inactive)	> 100 µM (inactive)	> 100 µM (inactive)	> 100 µM (inactive)	> 100 µM (inactive)	> 100 µM (inactive)	> 100 µM (inactive)	> 100 µM (inactive)	> 100 µM (inactive)	> 100 µM (inactive)	> 100 µM (inactive)		> 100 µM (inactive)
Cc1ccc(S(=O)(=O)N/N=C(/c2nc3ccc([N+](=O)[O-])cc3nc2O)C(O)c2ccc(C(O)/C(=N\NS(=O)(=O)c3ccc(C)cc3)c3nc4ccc([N+](=O)[O-])cc4nc3O)cc2)cc1 (stereo not drawn)	7.82 µM (inactive)	28.6 µM (inactive)	42.9 µM (inactive)	77.6 µM (inactive)	> 100 µM (inactive)	28.1 µM (inactive)	38.4 µM (inactive)	13 µM (inactive)	54.2 µM (inactive)	> 100 µM (inactive)		> 100 µM (inactive)	14.8 µM (inactive)		28.2 µM (inactive)	13.6 µM (inactive)	> 100 µM (inactive)	26.1 µM (inactive)	2.55 µM (inactive)
COc1ccc(-c2nc(-c3cnccn3)n(Cc3ccccc3)n2)cc1	> 100 µM (inactive)		> 100 µM (inactive)		47.9 µM (inactive)	> 100 µM (inactive)	> 100 µM (inactive)	> 100 µM (inactive)	> 100 µM (inactive)	> 100 µM (inactive)	> 100 µM (inactive)	> 100 µM (inactive)	> 100 µM (inactive)	> 100 µM (inactive)	> 100 µM (inactive)	> 100 µM (inactive)	> 100 µM (inactive)	> 100 µM (inactive)	> 100 µM (inactive)
